According to ChEMBL document CHEMBL3108750, “Solution structure of a sponge-derived cystine knot peptide and its notable stability” (J Nat Prod, 2014):
Positions of bridges follow the written chain, without caps; N, C: chain ends. Residues, ends and D or L forms follow the SMILES beside them.

How the values were obtained:
[1] = Cytotoxicity against human MCF10A cells assessed as cell viability up to 50 uM after 48 hrs by MTT assay; type: cell-based; settings: mcf-10a
[2] = Cytotoxicity against human HK2 cells assessed as cell viability up to 50 uM after 48 hrs by MTT assay; type: cell-based; settings: hk-2, 48 h

With `CC[C@H](C)[C@H](NC(=O)[C@@H](NC(=O)[C@H](Cc1ccc(O)cc1)NC(=O)[C@@H]1CSSC[C@@H]2NC(=O)[C@@H]3CCCN3C(=O)[C@H](CC(N)=O)NC(=O)[C@H](Cc3ccccc3)NC(=O)[C@H](CCC(=O)O)NC(=O)[C@H](C(C)C)NC(=O)[C@H](CC(=O)O)NC(=O)[C@@H]3CSSC[C@H](NC(=O)[C@H]([C@@H](C)O)NC(=O)[C@H](CC(C)C)NC(=O)[C@@H]4CCCN4C(=O)[C@@H]4CCCN4C(=O)[C@H](CSSC[C@H](N)C(=O)N4CCC[C@H]4C(=O)NCC(=O)N[C@@H](CCC(=O)O)C(=O)NCC(=O)N[C@@H](CCC(=O)O)C(=O)N[C@@H](CCC(N)=O)C(=O)N3)NC2=O)C(=O)N[C@@H]([C@@H](C)CC)C(=O)N2CCC[C@H]2C(=O)NCC(=O)N[C@@H](CC(=O)O)C(=O)N2CCC[C@H]2C(=O)N[C@@H](Cc2ccc(O)cc2)C(=O)NCC(=O)N[C@@H]([C@@H](C)CC)C(=O)N1)[C@@H](C)CC)C(=O)O` (H-CPGEGEQCDVEFNPCCPPLTCIPGDPYGICYII-OH; disulfide 1-16, 8-21, 15-30) the Activity [1] was “Non-toxic” and the Activity [2] was “Non-toxic”.
